According to paper PMC7845594, “Novel Immune Modulators Enhance Caenorhabditis elegans Resistance to Multiple Pathogens” (mSphere, 2021):

System: C. elegans transcriptome
Assay: Transcriptome profiling (Affymetrix microarrays), differentially expressed genes
Format: in vivo, Caenorhabditis elegans
Conditions: downregulated genes
Method: To gain additional insight into the effect of LK molecules on C. elegans, young-adult, wild-type worms were treated with each drug at 100 µM for 8 h in the absence of pathogen. RNA was collected, and transcriptome profiling was performed.
Data were determined using Affymetrix microarrays, as described in Materials and Methods. Download Table S3, XLSX file, 0.07 MB.
Transcriptome profiling was performed on ∼6,000 wild-type, young adult worms incubated with either LK molecules or DMSO for 8 h. RNA isolation was performed using TRIzol extraction, followed by cleanup using RNeasy columns according to the manufacturer’s protocol. Each condition was analyzed in triplicate. Microarray data have been deposited in the GEO database, accession number GSE137516. […] Clustering and generation of the heat map was performed using Cluster 3.0 ([98]) and Treeview ([99]), respectively. Fold change of genes were normalized to average fold change of that gene over all clustered conditions. Genes and conditions were clustered using Euclidean distance and average linkages. […] Microarray data for non-LK molecules were collected from GEO omnibus. WormEXP was used as a secondary method for confirming statistical significance of potential pathways stimulated by each of the LK molecules ([100]). Gene ontologies were generated using DAVID ([101], [102]).

SMILES: CCN(CC)/N=N/c1ccc(C(=O)O)cc1 [LK35]
- Fold Change (Gene C27H5.4, Affy_ID 181334_s_at): 0.3156
- Fold Change (Gene C29F4.2, Affy_ID 190884_at): 0.3931
- Fold Change (Gene C32E8.7, Affy_ID 188220_at): 0.2903
- Fold Change (Gene C33F10.9, Affy_ID 172834_x_at): 0.1897
- Fold Change (Gene C34F11.3, Affy_ID 189114_at): 0.4428
- Fold Change (Gene C34F11.4, Affy_ID 172885_x_at): 0.1632
- Fold Change (Gene C34F11.6, Affy_ID 172896_x_at): 0.1976
- Fold Change (Gene C35A5.6, Affy_ID 179396_at): 0.1353
- Fold Change (Gene C35D10.11, Affy_ID 172630_x_at): 0.1209
- Fold Change (Gene C44C8.6, Affy_ID 189233_s_at): 0.3734
- Fold Change (Gene C49F5.1, Affy_ID 174812_at): 0.237
- Fold Change (Gene C50F7.5, Affy_ID 183381_at): 0.3778
- Fold Change (Gene CTEL54X.1, Affy_ID 185910_at): 0.2757
- Fold Change (Gene D1086.2, Affy_ID 177478_at): 0.1132
- Fold Change (Gene D1086.5, Affy_ID 177666_at): 0.2318
- Fold Change (Gene D2024.7, Affy_ID 187178_s_at): 0.4973
- Fold Change (Gene D2045.8, Affy_ID 191879_at): 0.4257
- Fold Change (Gene D2089.3, Affy_ID 178891_at): 0.3977
- Fold Change (Gene F02D8.4, Affy_ID 189325_at): 0.3853
- Fold Change (Gene F07A11.5, Affy_ID 188623_at): 0.4237
- Fold Change (Gene F08B6.4, Affy_ID 171924_x_at): 0.4112
- Fold Change (Gene F08G2.1, Affy_ID 192280_s_at): 0.181
- Fold Change (Gene F53A9.8, Affy_ID 180612_s_at): 0.2385
- Fold Change (Gene F53F4.13, Affy_ID 182491_at): 0.306
- Fold Change (Gene F54F11.2, Affy_ID 191753_at): 0.2877
- Fold Change (Gene F55F3.2, Affy_ID 189534_at): 0.2425
- Fold Change (Gene F55G1.3, Affy_ID 172702_x_at): 0.3727
- Fold Change (Gene F58A4.7, Affy_ID 171841_x_at): 0.2717
- Fold Change (Gene F58A6.8, Affy_ID 172889_x_at): 0.1742
- Fold Change (Gene F58A6.9, Affy_ID 172743_x_at): 0.2732
- Fold Change (Gene F58B3.1, Affy_ID 178236_s_at): 0.3338
- Fold Change (Gene F58G1.4, Affy_ID 177978_at): 0.2272
- Fold Change (Gene F59B2.5, Affy_ID 187071_at): 0.4863
- Fold Change (Gene H02I12.6, Affy_ID 172891_x_at): 0.4113
- Fold Change (Gene H12C20.3, Affy_ID 192782_at): 0.1769
- Fold Change (Gene H12D21.1, Affy_ID 172431_x_at): 0.176
- Fold Change (Gene H36L18.2, Affy_ID 179787_at): 0.4486
- Fold Change (Gene K02C4.2, Affy_ID 178299_at): 0.2893
- Fold Change (Gene K02D7.1, Affy_ID 189003_s_at): 0.4157
- Fold Change (Gene K03H1.10, Affy_ID 179875_at): 0.3898
- Fold Change (Gene K03H6.2, Affy_ID 183309_at): 0.3456
- Fold Change (Gene K05F1.2, Affy_ID 172815_x_at): 0.2488
- Fold Change (Gene K05F1.7, Affy_ID 172904_x_at): 0.1812
- Fold Change (Gene K06C4.12, Affy_ID 172685_x_at): 0.3916
- Fold Change (Gene K07E8.3, Affy_ID 180256_at): 0.04574
- Fold Change (Gene K07F5.2, Affy_ID 172852_x_at): 0.1696
- Fold Change (Gene K07F5.3, Affy_ID 172907_x_at): 0.1824
- Fold Change (Gene K07F5.5, Affy_ID 172245_x_at): 0.3189
- Fold Change (Gene K08F4.8, Affy_ID 172934_x_at): 0.1666
- Fold Change (Gene K08F8.4, Affy_ID 193649_s_at): 0.4028
- Fold Change (Gene K10F12.4, Affy_ID 185815_at): 0.3079
- Fold Change (Gene M01D7.5, Affy_ID 173242_s_at): 0.2324
- Fold Change (Gene M05D6.7, Affy_ID 193914_at): 0.3025
- Fold Change (Gene M6.1, Affy_ID 193073_at): 0.2608
- Fold Change (Gene M18.1, Affy_ID 173632_s_at): 0.1786
- Fold Change (Gene M163.1, Affy_ID 177298_at): 0.4161
- Fold Change (Gene R01E6.3, Affy_ID 189628_at): 0.3449
- Fold Change (Gene R03E9.1, Affy_ID 193723_s_at): 0.1079
- Fold Change (Gene R04B5.9, Affy_ID 191440_at): 0.2481
- Fold Change (Gene R05F9.3, Affy_ID 172725_x_at): 0.3857
- Fold Change (Gene R05F9.8, Affy_ID 172724_x_at): 0.1853
- Fold Change (Gene R05G6.10, Affy_ID 192058_at): 0.3689
- Fold Change (Gene R07B1.3, Affy_ID 190822_s_at): 0.3753
- Fold Change (Gene R12C12.1, Affy_ID 190616_at): 0.3455
- Fold Change (Gene R12E2.9, Affy_ID 180698_s_at): 0.2329
- Fold Change (Gene R52.3, Affy_ID 177369_at): 0.433
- Fold Change (Gene T01C3.4, Affy_ID 188106_at): 0.01178
- Fold Change (Gene T01D3.6, Affy_ID 194060_s_at): 0.3484
- Fold Change (Gene T02B11.3, Affy_ID 174051_s_at): 0.4315
- Fold Change (Gene T03D8.2, Affy_ID 190280_at): 0.4443
- Fold Change (Gene T07C4.4, Affy_ID 178149_s_at): 0.4269
- Fold Change (Gene T07G12.5, Affy_ID 188496_s_at): 0.1018
- Fold Change (Gene T08B1.6, Affy_ID 192296_at): 0.1305
- Fold Change (Gene T08B2.12, Affy_ID 184685_s_at): 0.1145
- Fold Change (Gene T09F5.9, Affy_ID 188947_at): 0.2413
- Fold Change (Gene T15B7.9, Affy_ID 182858_at): 0.3683
- Fold Change (Gene T19H5.4, Affy_ID 186755_s_at): 0.3412
- Fold Change (Gene T20B3.2, Affy_ID 188278_s_at): 0.3943
- Fold Change (Gene T20D4.11, Affy_ID 184438_at): 0.05764
- Fold Change (Gene T20G5.7, Affy_ID 172218_x_at): 0.3082
- Fold Change (Gene T22H2.6, Affy_ID 180962_s_at): 0.3753
